Experimental data reported in US10336711B2, “Prolyl hydroxylase inhibitors” (GlaxoSmithKline, LLC, priority 2006, dated 2019).
pEC50: −log10 of the molar value.

System: Hep3B cells
Test: Epo protein produced by Hep3B cell line using ELISA method
Format: cell-based
Settings: Homo sapiens, 48 Hours incubation, 100 micromolar the maximum concentration tested
Description: Measure Epo Protein Produced by Hep3B Cell Line Using ELISA Method.
Hep3B cells obtained from the American Type Culture Collection (ATCC) are seeded at 2×10^4 cells/well in Dulbecco's Modified Eagle Medium (DMEM)+10% FBS in 96-well plates. Cells are incubated at 37deg C./5% CO2/90% humidity (standard cell culture incubation conditions). After overnight adherence, medium is removed and replaced with DMEM without serum containing test compound or DMSO negative control. Following 48 Hours incubation, cell culture medium is collected and assayed by ELISA to quantitate Epo protein.

Compound | pEC50
O=C(O)CNC(=O)c1c(O)n(-c2ccccn2)c(=O)n(Cc2ccccc2)c1=O [Example 8, N-{[6-Hydroxy-2,4-dioxo-3-(phenylmethyl)-1-(2-pyridinyl)-1,2,3,4-tetrahydro-5-pyrimidinyl]carbonyl}glycine] | < 4.00
O=C(O)CNC(=O)c1c(O)n(-c2ccccc2[N+](=O)[O-])c(=O)n(Cc2ccccc2)c1=O [Example 9, N-{[6-Hydroxy-1-(2-nitrophenyl)-2,4-dioxo-3-(phenylmethyl)-1,2,3,4-tetrahydro-5-pyrimidinyl]carbonyl}glycine] | < 4.00
CC(C)(C)c1ccc(Cn2c(=O)c(C(=O)NCC(=O)O)c(O)n(-c3ccccc3-c3ccccc3)c2=O)cc1 [Example 31, N-[(1-(2-Biphenylyl)-3-{[4-(1,1-dimethylethyl)phenyl]methyl}-6-hydroxy-2,4-dioxo-1,2,3,4-tetrahydro-5-pyrimidinyl)carbonyl]glycine] | < 4.00
O=C(O)CNC(=O)c1c(O)n(C2CCCCC2)c(=O)n(CCCN2CCOCC2)c1=O [Example 35, N-({1-Cyclohexyl-6-hydroxy-3-[3-(4-morpholinyl)propyl]-2,4-dioxo-1,2,3,4-tetrahydro-5-pyrimidinyl}carbonyl)glycine] | < 4.00
CC1(C)CCC(C)(C)c2cc(Cn3c(=O)c(C(=O)NCC(=O)O)c(O)n(C4CCCCC4)c3=O)ccc21 [Example 39, N-({1-Cyclohexyl-6-hydroxy-2,4-dioxo-3-[(5,5,8,8-tetramethyl-5,6,7,8-tetrahydro-2-naphthalenyl)methyl]-1,2,3,4-tetrahydro-5-pyrimidinyl}carbonyl)glycine] | < 4.00
O=C(O)CNC(=O)c1c(O)n(-c2cccc3ccccc23)c(=O)n(C2CCCCC2)c1=O [Example 88, N-{[3-Cyclohexyl-6-hydroxy-1-(1-naphthalenyl)-2,4-dioxo-1,2,3,4-tetrahydro-5-pyrimidinyl]carbonyl}glycine] | < 4.00
CCOC(=O)CNC(=S)c1c(O)n(C2CCCCC2)c(=O)n(C2CCCCC2)c1=O [Example 91, Ethyl N-[(1,3-dicyclohexyl-6-hydroxy-2,4-dioxo-1,2,3,4-tetrahydro-5-pyrimidinyl)carbonothioyl]glycinate] | < 4.00
O=C(O)CCCCCn1c(O)c(C(=O)NCC(=O)O)c(=O)n(C2CCCCC2)c1=O [Example 93, 6-[5-{[(Carboxymethyl)amino]carbonyl}-3-cyclohexyl-6-hydroxy-2,4-dioxo-3,4-dihydro-1(2 H)-pyrimidinyl]hexanoic acid] | < 4.00
O=C(O)CCCCCn1c(O)c(C(=S)NCC(=O)O)c(=O)n(C2CCCCC2)c1=O [Example 94, 6-[5-{[(Carboxymethyl)amino]carbonothioyl}-3-cyclohexyl-6-hydroxy-2,4-dioxo-3,4-dihydro-1(2 H)-pyrimidinyl]hexanoic acid] | < 4.00
